Measured values as given in ChEMBL document CHEMBL1201862, “PubChem BioAssay data set” (2004).
Calls of active or inactive are those of the source.

Experiments:
[1] = molecular target: Voltage-dependent T-type calcium channel subunit alpha-1H (Homo sapiens, UniProt O95180); type: functional;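 further: channel activity triggered by adding a high calcium stimulation buffer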
[2] = molecular target: Photoreceptor-specific nuclear receptor (Homo sapiens, UniProt Q9Y5X4); type: functional;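 further: potency for compounds that break the NR2E3 corepressor complex and count as activators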
Sequence of Photoreceptor-specific nuclear receptor (Q9Y5X4 whole entry): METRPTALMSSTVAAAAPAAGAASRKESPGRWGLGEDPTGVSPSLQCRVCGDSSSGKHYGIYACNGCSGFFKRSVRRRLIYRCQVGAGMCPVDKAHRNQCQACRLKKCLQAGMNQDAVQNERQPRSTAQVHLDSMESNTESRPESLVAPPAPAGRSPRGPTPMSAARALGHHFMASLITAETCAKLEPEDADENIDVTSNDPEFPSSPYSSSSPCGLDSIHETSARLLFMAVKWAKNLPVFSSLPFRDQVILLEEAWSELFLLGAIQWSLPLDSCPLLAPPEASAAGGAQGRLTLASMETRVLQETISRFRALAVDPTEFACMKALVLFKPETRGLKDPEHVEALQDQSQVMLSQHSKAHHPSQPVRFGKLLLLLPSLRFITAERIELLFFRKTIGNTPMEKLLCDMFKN

[3] = molecular target: Peroxisome proliferator-activated receptor gamma/Nuclear receptor corepressor 2 (Homo sapiens, UniProt P37231+Q9Y618); type: functional
Protein skinhead-1 = molecular target: T1, Protein skinhead-1 (Caenorhabditis elegans, UniProt P34707); type: functional
T1 sequence (P34707 whole entry): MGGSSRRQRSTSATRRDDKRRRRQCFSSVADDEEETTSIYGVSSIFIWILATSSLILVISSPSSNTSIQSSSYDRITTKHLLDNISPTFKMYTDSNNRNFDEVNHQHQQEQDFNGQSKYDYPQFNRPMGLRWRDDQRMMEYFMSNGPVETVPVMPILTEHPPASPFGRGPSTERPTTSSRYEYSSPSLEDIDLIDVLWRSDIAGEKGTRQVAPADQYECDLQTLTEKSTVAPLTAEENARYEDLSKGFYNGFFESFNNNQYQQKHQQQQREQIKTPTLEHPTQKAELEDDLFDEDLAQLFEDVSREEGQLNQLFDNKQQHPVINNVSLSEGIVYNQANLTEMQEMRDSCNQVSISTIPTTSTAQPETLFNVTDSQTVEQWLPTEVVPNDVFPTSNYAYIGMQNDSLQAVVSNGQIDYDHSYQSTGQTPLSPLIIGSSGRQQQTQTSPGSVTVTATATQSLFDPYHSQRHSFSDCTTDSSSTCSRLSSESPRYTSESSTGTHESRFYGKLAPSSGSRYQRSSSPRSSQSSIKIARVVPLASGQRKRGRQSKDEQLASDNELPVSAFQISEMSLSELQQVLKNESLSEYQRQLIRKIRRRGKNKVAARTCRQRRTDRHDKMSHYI

[4] = molecular target: DNA dC->dU-editing enzyme APOBEC-3A (Homo sapiens, UniProt P31941); assay: Dose Response confirmation of small molecule APOBEC3A DNA Deaminase Inhibitors via a fluorescence-based single-stranded DNA deaminase assay. [Related pubchem assays (depositor defined):AID493011, AID493024]; type: functional
Sequence of DNA dC->dU-editing enzyme APOBEC-3A (P31941 whole entry): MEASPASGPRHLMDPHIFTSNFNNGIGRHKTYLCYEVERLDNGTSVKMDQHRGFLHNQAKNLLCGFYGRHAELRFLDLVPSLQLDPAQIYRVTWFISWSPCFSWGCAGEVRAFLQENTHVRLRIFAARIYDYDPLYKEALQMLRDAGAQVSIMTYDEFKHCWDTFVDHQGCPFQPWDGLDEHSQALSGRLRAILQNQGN

[5] = molecular target: T2, DNA dC->dU-editing enzyme APOBEC-3G (Homo sapiens, UniProt Q9HC16); type: functional
T2 sequence (Q9HC16 whole entry): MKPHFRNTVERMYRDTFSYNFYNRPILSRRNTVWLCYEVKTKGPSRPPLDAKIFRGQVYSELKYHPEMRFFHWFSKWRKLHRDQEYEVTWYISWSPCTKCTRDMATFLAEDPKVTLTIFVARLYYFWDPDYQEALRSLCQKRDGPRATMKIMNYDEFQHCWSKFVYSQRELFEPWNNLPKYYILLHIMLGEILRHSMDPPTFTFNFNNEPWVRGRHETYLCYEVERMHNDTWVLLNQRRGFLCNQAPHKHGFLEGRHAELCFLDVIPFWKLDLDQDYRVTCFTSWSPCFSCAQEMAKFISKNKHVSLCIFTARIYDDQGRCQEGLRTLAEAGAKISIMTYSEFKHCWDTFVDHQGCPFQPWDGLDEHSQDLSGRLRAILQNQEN

[6] = molecular target: T3, Luciferin 4-monooxygenase (Photinus pyralis, UniProt P08659); assay: Counter Screen for Luciferase-based Assay Positives. [Related pubchem assays: 620, 618, 411 ]
T3 sequence (P08659 whole entry): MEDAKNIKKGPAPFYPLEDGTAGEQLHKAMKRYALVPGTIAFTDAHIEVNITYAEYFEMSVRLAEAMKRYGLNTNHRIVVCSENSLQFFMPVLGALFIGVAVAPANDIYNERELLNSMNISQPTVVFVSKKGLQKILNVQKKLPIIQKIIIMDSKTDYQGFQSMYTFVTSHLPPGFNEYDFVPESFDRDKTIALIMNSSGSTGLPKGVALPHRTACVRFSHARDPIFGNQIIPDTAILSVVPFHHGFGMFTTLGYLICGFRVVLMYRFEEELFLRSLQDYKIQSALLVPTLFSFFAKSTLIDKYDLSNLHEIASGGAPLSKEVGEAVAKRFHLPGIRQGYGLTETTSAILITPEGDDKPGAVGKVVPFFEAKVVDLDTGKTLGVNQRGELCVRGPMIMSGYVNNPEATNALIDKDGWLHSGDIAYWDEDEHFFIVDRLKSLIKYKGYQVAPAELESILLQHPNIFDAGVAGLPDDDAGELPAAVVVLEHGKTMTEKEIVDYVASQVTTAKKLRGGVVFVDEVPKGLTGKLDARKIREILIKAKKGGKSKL

[7] = molecular target: T3, Luciferin 4-monooxygenase; assay: firefly luciferase enzyme inhibitors, dose response, biochemical, luminescence (AID 1891)
[8] = Luminescence Cell-Based Dose Confirmation HTS to Identify Inhibitors of Platelet Dense Granule Release. [Related pubchem assays: 1663 (Primary HTS), 1678 (Summary of Project)]; type: functional
HT-1080 = assay: cytotoxicity in HT1080 fibrosarcoma cells, cell-based, fluorescence readout (AID 620); type: functional; conditions: Homo sapiens
[9] = inhibitors of intracellular T. cruzi replication, confirmation, NIH3T3 host cells, beta-gal luminescence (AID 2044); type: functional, cell-based;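 further: intracellular parasites grown in NIH/3T3 mouse fibroblasts as host cells; luminescent beta-galactosidase reporter signal from transgenic T. cruzi replicating inside host cells; inhibitors lower the luminescence signal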
[10] = cytotoxicity toward NIH3T3 fibroblasts, dose response, counter-screen, cell-based, ATP luminescence, mouse fibroblasts (AID 2010); type: functional;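 further: cells exposed to compound for about 90 hours before reading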
Cytochrome P450 1A2 = molecular target: T4, Cytochrome P450 1A2 (Homo sapiens, UniProt P05177);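 further: PubChem cytochrome P450 panel assay, CYP1A2 panel member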
T4 sequence (P05177 whole entry): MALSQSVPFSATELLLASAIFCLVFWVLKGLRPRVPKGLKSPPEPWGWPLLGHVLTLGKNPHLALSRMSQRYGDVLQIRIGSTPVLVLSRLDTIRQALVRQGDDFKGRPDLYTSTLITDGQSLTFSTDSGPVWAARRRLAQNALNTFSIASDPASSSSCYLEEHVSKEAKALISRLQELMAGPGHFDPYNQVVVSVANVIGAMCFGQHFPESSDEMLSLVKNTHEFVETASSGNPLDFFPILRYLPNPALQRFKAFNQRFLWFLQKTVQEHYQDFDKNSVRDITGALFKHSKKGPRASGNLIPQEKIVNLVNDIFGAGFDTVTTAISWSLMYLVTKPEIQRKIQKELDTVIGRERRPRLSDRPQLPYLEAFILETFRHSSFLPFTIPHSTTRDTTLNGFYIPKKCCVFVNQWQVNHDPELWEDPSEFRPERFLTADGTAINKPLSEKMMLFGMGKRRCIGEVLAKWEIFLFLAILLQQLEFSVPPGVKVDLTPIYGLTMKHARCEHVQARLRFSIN

Cytochrome P450 2C9 = Cytochrome P450 2C9 (Homo sapiens, UniProt P11712)
[11] = molecular target: FAD-linked sulfhydryl oxidase ALR (Homo sapiens, UniProt P55789); assay: inhibitors of human ALR sulfhydryl oxidase, dose response, biochemical, H2O2 detection, luminescence, cherry-pick (AID 493248)
Genome polyprotein = Genome polyprotein (dengue virus type 2, UniProt P29990); assay: Dengue-2 NS5 methyltransferase inhibitors, primary screen, biochemical, confirmation dose response (AID 588689); type: functional
[12] = molecular target: T2, DNA dC->dU-editing enzyme APOBEC-3G; assay: Dose Response confirmation of small molecule APOBEC3G DNA Deaminase Inhibitors via a fluorescence-based single-stranded DNA deaminase assay. [Related pubchem assays (depositor defined):AID493012, AID493028]; type: functional
[13] = molecular target: T5, Carboxy-terminal domain RNA polymerase II polypeptide A small phosphatase 1 (Homo sapiens, UniProt Q9GZU7); assay: inhibitors of CTDSP1, concentration-response testing, biochemical assay, absorbance-based, actives from ultra-high-throughput screening (AID 540297); type: functional
T5 sequence (Q9GZU7 whole entry): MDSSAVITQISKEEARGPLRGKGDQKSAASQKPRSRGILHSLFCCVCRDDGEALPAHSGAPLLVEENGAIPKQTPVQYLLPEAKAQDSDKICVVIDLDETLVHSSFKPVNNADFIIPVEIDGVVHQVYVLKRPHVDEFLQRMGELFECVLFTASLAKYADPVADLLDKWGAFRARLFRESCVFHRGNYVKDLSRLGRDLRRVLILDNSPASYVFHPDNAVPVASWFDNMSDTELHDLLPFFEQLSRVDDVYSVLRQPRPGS

[14] = HEp-2 cell cytotoxicity, dose response, cytotoxicity control for RSV inhibitor project, HTS (AID 2410); type: functional; conditions: human respiratory syncytial virus
SUMO-activating enzyme [15] = molecular target: T6, SUMO-activating enzyme (Homo sapiens, UniProt Q9UBT2); assay: SUMOylation inhibitor hit validation, confirmation, SUMOylation inhibitor project, biochemical, AlphaScreen (AID 2018); type: functional
T6 sequence (Q9UBE0 whole entry): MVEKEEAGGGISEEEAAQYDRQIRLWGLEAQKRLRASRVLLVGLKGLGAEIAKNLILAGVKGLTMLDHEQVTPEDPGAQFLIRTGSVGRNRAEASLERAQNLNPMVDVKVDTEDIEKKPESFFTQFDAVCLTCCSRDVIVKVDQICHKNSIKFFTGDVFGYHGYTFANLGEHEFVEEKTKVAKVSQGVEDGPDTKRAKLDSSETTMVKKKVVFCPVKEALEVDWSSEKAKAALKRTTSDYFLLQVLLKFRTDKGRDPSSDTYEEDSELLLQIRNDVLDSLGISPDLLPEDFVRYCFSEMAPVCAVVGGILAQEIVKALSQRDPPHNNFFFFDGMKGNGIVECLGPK
T6 sequence (Q9UBT2 whole entry): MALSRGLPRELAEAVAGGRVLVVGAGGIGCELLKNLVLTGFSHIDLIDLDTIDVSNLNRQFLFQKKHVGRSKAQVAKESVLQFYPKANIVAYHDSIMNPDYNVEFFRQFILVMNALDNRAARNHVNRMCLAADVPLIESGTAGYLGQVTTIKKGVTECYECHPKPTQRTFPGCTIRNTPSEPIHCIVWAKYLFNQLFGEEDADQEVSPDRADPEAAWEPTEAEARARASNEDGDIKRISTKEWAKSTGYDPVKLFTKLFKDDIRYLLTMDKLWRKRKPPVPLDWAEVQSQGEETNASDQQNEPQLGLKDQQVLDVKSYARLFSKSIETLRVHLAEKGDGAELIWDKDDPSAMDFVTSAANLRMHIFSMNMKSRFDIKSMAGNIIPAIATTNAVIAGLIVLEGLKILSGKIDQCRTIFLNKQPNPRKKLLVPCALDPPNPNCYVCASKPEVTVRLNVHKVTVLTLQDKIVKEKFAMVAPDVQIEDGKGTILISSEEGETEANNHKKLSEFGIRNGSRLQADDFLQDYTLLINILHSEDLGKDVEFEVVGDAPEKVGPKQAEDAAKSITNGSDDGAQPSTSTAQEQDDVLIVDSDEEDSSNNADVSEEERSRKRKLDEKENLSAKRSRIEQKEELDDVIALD

SUMO-activating enzyme [16] = molecular target: T6, SUMO-activating enzyme; assay: inhibitors of in vitro SUMOylation cascade, primary screen, biochemical, HTRF, uHTS (AID 2006); type: protein-complex assay
[17] = inhibitors of firefly luciferase expression or activity, dose response, H4 neuroglioma cells, luminescence (AID 1990); type: functional, cell-based
[18] = Luminescence Cell-Based Dose Response HTS to Identify Inhibitors of 5'UTR Stem-Loop Driven Prion Protein mRNA Translation in H4 Neuroglioblastoma Cells. [Related pubchem assays: 1827 (Project Summary), 1813 (Primary HTS)]; type: functional
[19] = inhibitors of SNCA 5'UTR-driven reporter translation, confirmation, H4 neuroglioma cells, luminescence (AID 1988); type: functional, cell-based
Large T antigen = Large T antigen (Simian virus 40, UniProt P03070); type: functional, Betapolyomavirus macacae;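 further: Confirmatory-stage PubChem screen for compounds that inhibit SV40 T antigen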
[20] = molecular target: T7, Microphthalmia-associated transcription factor (Homo sapiens, UniProt O75030); assay: TRPM1 promoter luciferase signal decrease, dose response, MITF inhibitor project, cell-based, SK-MEL-5, cherry-picked, set 3 (AID 493073); type: functional
T7 sequence (O75030 whole entry): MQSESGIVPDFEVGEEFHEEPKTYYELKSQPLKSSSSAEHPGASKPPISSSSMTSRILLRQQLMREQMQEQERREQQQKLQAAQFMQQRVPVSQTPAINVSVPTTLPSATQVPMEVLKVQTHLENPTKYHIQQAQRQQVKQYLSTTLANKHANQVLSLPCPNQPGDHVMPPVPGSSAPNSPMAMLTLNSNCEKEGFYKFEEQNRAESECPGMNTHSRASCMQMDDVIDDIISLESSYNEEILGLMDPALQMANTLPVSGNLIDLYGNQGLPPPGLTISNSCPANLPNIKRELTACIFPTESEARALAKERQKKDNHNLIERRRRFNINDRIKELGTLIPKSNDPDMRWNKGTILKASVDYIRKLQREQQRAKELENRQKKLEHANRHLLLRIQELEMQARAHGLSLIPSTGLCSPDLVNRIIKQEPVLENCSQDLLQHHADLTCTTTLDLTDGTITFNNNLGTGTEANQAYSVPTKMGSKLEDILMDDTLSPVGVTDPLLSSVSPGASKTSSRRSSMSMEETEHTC

[21] = molecular target: T8, Ubiquitin-conjugating enzyme E2 N (Homo sapiens, UniProt P61088); type: functional;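 further: Dose-response confirmation in a TR-FRET assay detecting UBC13-driven polyubiquitin chain formation, inhibition measured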
T8 sequence (P61088 whole entry): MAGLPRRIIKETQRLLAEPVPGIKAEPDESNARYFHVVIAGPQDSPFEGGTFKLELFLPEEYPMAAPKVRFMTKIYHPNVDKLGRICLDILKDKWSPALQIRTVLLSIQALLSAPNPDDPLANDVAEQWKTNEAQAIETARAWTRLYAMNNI

[22] = Luminescence Cell-Based Dose Retest to Confirm Inhibitors of Cancer Stem Cells. [Related pubchem assays (depositor defined):AID2717, AID2721]; type: functional; conditions: Homo sapiens
HEK293 = assay: inhibitors of LMP1-driven NF-kB reporter, dose response, cell-based, HEK293, luciferase, cherry-pick (AID 588343); type: functional; conditions: Homo sapiens
[23] = tested on: Streptococcus sp. 'group A'; assay: growth inhibition of control SK(-) GAS strain, dose response, counter-screen for streptokinase expression inhibitor project, luminescence, kanamycin, BacTiterGlo, confirmation (AID 1900); type: functional, organism-based
cells [24] = type: functional, cell-based
cells [25] = type: functional, cell-based; remark: listed apart in the source
Streptococcus = assay: Group A Streptococcus viability loss, dose response, counter-screen for streptokinase expression inhibitor project, luminescence, BacTiterGlo (AID 1915); type: functional, organism-based;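 further: potency for reduction of bacterial viability or growth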
INS1 = assay: beta cell apoptosis inhibitors, cytokine rescue, dose response, luminescence, retest (AID 449756); type: functional, cell-based; conditions: Rattus norvegicus;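 further: cell death triggered by IL-1 beta plus TNF-alpha plus IFN-gamma mixture; protective hits raise ATP signal compared with cytokine alone wells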

Sequence of Voltage-dependent T-type calcium channel subunit alpha-1H (O95180 whole entry): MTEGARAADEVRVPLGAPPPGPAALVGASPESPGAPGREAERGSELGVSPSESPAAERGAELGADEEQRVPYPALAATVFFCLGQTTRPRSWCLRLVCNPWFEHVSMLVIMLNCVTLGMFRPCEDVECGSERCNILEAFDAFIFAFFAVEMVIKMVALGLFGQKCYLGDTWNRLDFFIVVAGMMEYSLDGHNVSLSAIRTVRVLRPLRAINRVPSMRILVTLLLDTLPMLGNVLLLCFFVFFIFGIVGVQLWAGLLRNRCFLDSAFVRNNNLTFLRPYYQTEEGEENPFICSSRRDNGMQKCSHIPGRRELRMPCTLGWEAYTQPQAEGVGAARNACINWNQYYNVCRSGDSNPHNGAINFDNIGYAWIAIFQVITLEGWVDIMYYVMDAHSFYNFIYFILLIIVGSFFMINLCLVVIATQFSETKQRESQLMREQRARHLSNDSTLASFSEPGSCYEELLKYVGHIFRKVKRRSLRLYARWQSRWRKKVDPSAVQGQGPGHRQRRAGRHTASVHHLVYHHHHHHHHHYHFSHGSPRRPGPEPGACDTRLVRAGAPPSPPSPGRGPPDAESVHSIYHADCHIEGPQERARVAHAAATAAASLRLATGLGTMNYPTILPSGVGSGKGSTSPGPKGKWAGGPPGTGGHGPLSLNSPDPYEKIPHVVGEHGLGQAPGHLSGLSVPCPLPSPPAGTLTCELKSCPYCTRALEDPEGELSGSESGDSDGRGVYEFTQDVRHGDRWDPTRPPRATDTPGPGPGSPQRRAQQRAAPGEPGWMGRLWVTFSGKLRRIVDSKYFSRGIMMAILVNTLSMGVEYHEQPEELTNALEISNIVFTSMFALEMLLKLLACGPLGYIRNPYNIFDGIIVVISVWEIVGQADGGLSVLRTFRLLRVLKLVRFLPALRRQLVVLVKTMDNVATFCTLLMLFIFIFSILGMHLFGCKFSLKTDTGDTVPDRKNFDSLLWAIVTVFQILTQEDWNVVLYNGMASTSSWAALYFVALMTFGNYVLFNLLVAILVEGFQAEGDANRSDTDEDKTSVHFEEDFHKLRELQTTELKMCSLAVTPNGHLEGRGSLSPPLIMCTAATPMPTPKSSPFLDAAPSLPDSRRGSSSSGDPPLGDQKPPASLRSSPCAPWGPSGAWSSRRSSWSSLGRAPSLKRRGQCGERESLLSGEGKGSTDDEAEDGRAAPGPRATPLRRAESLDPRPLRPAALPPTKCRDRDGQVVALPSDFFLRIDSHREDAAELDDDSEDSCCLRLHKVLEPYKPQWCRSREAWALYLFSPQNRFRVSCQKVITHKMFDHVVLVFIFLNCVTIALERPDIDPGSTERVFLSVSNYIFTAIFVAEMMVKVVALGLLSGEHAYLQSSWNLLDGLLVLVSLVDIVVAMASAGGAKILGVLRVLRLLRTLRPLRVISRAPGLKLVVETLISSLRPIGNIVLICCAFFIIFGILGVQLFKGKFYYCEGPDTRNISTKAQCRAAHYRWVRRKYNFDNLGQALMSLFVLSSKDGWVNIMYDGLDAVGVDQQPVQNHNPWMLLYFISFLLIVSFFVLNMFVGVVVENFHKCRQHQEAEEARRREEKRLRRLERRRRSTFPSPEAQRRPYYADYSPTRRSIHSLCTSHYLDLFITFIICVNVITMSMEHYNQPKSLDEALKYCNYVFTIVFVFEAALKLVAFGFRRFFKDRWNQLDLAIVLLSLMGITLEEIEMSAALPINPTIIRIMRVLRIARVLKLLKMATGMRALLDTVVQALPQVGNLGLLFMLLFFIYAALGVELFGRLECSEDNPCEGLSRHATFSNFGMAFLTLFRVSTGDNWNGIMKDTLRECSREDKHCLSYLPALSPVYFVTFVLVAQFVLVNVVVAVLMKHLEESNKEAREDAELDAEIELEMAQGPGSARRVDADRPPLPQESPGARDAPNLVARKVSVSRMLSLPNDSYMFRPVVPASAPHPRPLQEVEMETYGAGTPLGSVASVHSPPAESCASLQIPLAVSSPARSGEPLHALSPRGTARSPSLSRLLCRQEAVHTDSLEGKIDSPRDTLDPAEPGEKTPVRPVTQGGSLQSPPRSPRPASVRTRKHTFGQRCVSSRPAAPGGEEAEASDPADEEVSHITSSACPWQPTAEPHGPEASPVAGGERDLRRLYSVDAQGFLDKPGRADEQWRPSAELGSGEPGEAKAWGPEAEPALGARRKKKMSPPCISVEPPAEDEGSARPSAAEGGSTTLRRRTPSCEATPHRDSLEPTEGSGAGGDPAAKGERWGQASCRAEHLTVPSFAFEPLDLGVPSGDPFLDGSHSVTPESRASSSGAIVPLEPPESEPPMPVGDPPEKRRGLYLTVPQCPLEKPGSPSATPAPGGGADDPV

## CC(Sc1nnc(-c2cccs2)n1Cc1ccccc1)C(=O)NCc1ccc2c(c1)OCO2 (centres undefined)
[1]
  EC50: 9.04 µM (active)

## COC(=O)CCCC[C@H]1SC[C@H]2NC(=O)N[C@]21O
[2]
  IC50: 0.389 µM (active)
[3]
  IC50: 1.92 µM (active)

## Cc1ccc(C)c(N2CCN(C(c3ccc(N(C)C)cc3)c3nnnn3C(C)(C)C)CC2)c1 (centres undefined)
[1]
  EC50: 4.2 µM (active)
Protein skinhead-1
  IC50: > 100 µM (inactive)

## CCSCCNC(=O)c1cc(-n2cnnc2)ccc1Cl
[4]
  IC50: 4.2 µM (active)
[5]
  IC50: 4.09 µM (active)

## COc1ccc(NC(=O)c2cc3ccccn3n2)cc1
[6]
  EC50: 3.55 µM (active)
[7]
  EC50: 31.4 µM (active)
[8]
  EC50: > 112 µM (not active)
HT-1080
  EC50: 29.9 µM (active)

## COc1ccc(CCNC(=O)C2CCCN(Cc3nc(-c4cccc(Cl)c4)oc3C)C2)cc1OC (centres undefined)
[9]
  EC50: 0.145 µM (active)
[10]
  EC50: > 60 µM (not active)
[1]
  EC50: 5.34 µM (active)
Cytochrome P450 1A2
  AC50: 15.8 µM (inconclusive)
Cytochrome P450 2C9
  AC50: 6.31 µM (inconclusive)

## CCC(Sc1nc(O)c(C#N)c(-c2ccccc2)n1)C(=O)Nc1cc(C)on1 (centres undefined)
[2]
  IC50: > 39.8 µM (not active)
[3]
  IC50: 4.41 µM (active)

## O=C(O)CN1C(=O)/C(=C\c2cccc(OCc3ccccc3)c2)SC1=S
[11]
  AC50: 4.52 µM (active)
Genome polyprotein
  IC50: 42.2 µM (active)

## Cc1noc(C)c1CSc1nc2cc(S(=O)(=O)N3CCOCC3)ccc2o1
[12]
  IC50: 50.7 µM (active)

## COc1ccc(CSCC(=O)N/N=C/c2ccc(OCC(=O)N3CCCCC3)cc2)cc1
[4]
  IC50: 5.86 µM (active)
[5]
  IC50: 6.1 µM (active)

## CC[N+]1(CC)CC2CCC(C)(C1)C2(C)C (centres undefined)
[4]
  IC50: 2.28 µM (active)
[5]
  IC50: 3.3 µM (active)
[13]
  IC50: 12.1 µM (active)

## CC(C(=O)N1c2ccccc2CCc2ccccc21)n1nnc(-c2ccc(N(C)C)cc2)n1 (centres undefined)
[1]
  EC50: 4.2 µM (active)

## O=C1NC(=O)N(Cc2ccco2)C(=O)/C1=C\c1cccn1CCOc1ccc(Cl)cc1
[14]
  CC50: 24.2 µM (active)
SUMO-activating enzyme [15]
  IC50: 5.71 µM (active)
SUMO-activating enzyme [16]
  IC50: 35.7 µM (active)

## Nc1ccc(-c2nc3c(Cl)cc(N)cc3[nH]2)cc1
[17]
  EC50: 9.81 µM (active)
[6]
  EC50: < 0.2 µM (active)
[18]
  EC50: 0.21 µM (active)
[19]
  EC50: 7.08 µM (active)
Large T antigen
  IC50: 9.32 µM (active)
HT-1080
  EC50: > 50 µM (not active)
[11]
  AC50: 0.556 µM (active)
[20]
  AC50: 3.76 µM (active)

## O=C(COc1ccc(CO)cc1Cl)Nc1ccc(F)cc1
[6]
  EC50: > 100 µM (not active)
HT-1080
  EC50: > 50 µM (not active)

## CCOCCCNC(=O)c1cn(CC(C)C)c(=O)c2c1c1ccccc1n2C
[21]
  IC50: > 20 µM (inactive)

## CCN1CCN(Cc2ccc(NC(=O)c3ccc(C)c(NC(=O)c4cc(-c5ccc(Br)cc5)[nH]n4)c3)cc2C(F)(F)F)CC1
[9]
  EC50: 1.53 µM (active)
[10]
  EC50: > 30 µM (not active)
[22]
  AC50: 3.4 µM (active)
[21]
  IC50: > 20 µM (inactive)
HEK293
  AC50: 0.741 µM (active)

## O=C(N/N=C/c1cc(Br)cc(Br)c1O)c1ccncc1
[23]
  EC50: 0.807 µM (active)
Cells [24]
  EC50: 24.8 µM (active)
SUMO-activating enzyme [15]
  IC50: 5.03 µM (active)
SUMO-activating enzyme [16]
  IC50: 8.52 µM (active)
Cells [25]
  EC50: > 350 µM (not active)
Streptococcus
  EC50: 2.5 µM (active)
INS1
  AC50: 2.64 µM (active)

## CC(C)CSC1=NSC2=NC(=O)/C(=C\c3ccccc3)C(=N)N12
Genome polyprotein
  IC50: 51.8 µM (active)
